Experiments:
[1] = system: Proteus mirabilis; assay: Growth of aerobically cultivated Proteus mirabilis in urine:TSB, microtiter serial dilution, optical density; format: cell-based; settings: for optical density (bacterial cell growth): 48 hours at 37° C., aerobic, listed as 7 Hr.
Procedure: Proteus mirabilis was cultured in TSB as described in Example 1 and transferred to a urine:TSB mixture (9:1) and incubated under aerobic conditions as described in Example 1. […] In a 96-well microtiter plate with a lid, 150 microliters of each 10% solution was introduced into the first and second columns of the wells. Using a multi-channel pipette, 150 microliters of urine:TSB mixture was introduced into each well except the first column. Beginning at the second column of wells, serial dilutions were made by removing 150 microliters from the second column and transferring it to the third column. The mixture was mixed by pipetting up and down three times. The serial dilutions continued across each column of the plate and, after column 11, 150 microliters was discarded leaving column 12 as the 0% solution. Each well was then inoculated with 1 microliter of Proteus mirabilis, except for the negative control rows. One to three drops of anti-fogging solution was place on the plate lids with a cotton applicator, and allowed to air dry. The mixtures were incubated for 48 hours at 37° C. under aerobic conditions. After incubation of the samples, each was analyzed for bacterial cell growth utilizing the optical density procedure as set forth in Example 1.

[2] = system: interleukin-1 alpha (IL-1a); assay: IL-1a release by EPIOCULAR skin culture challenged with sample; format: cell-based, human; settings: Table 5, 6 hours
From the text: In order to evaluate the amount of skin irritation by various samples prepared in the Examples, a human skin culture was selected to model the response of the human epidermis to treated and untreated bacterial metabolized urine:TSB mixture. The tissue model selected was an EPIOCULAR Tissue Model (OCL-200 propagated without hydrocortisone), and was purchased from MatTek Corporation (Ashland, Mass.). This model consists of normal, human-derived epidermal keratinocytes, which have been cultured to form a stratified, squamous epithelium similar to that found in the cornea. The epidermal cells, which are cultured on specially prepared cell culture inserts using a serum free medium, differentiate to form a multi-layered structures which closely parallel the corneal epithelium. Experiments using this skin culture were conducted in six parallel wells. Each well contained one milliliter of pre-warmed media that was the same as the model skin culture media. The plates were then incubated in a 37° C., 5% carbon dioxide atmosphere for thirty minutes. […] The response of the skin culture to test the compositions/control and the insult solution is determined by measuring the amount of interleukin-1 alpha (IL-1a) and/or interleukin-8 (IL-8). IL-1a and IL-8 were quantified using an Interleukin-1 alpha or Interleukin-8 Quantikine Kit available from R&D Systems (Minneapolis, Minn.).

[3] = system: E. coli (ATCC 8739); assay: Ammonia in urine:TSB with facultatively grown E. coli; format: cell-based; settings: Table 6, facultative E. coli
Procedure: Upon completion of the respective incubation periods of the samples, optical density measurements of each sample were taken as described above and ammonia production of the growth solutions was measured using an ammonia combination probe (Beckman, Fullerton, Calif.) by record mV using an Orion pH meter (Orion, Boston, Mass.). Orion ammonia standards (Orion) were used to calibrate the instrument. The four samples were prepared identically to the four samples in Example 5 with the exception that facultatively grown E. coli was utilized as the bacteria in place of the Proteus mirabilis bacteria. The process for growing facultatively grown E. coli is set forth in Example 1.

## mannitol peroxide
[1]; 0.0097% in urine:TSB
  optical density (bacterial cell growth): 0.98
[1]; 0.0195% in urine:TSB
  optical density (bacterial cell growth): 0.98
[1]; 0.0391% in urine:TSB
  optical density (bacterial cell growth): 0.95
[1]; 0.0785% in urine:TSB
  optical density (bacterial cell growth): 0.98
[1]; 0.156% in urine:TSB
  optical density (bacterial cell growth): 1.00
[1]; 0.313% in urine:TSB
  optical density (bacterial cell growth): 0.96
[1]; 0.625% in urine:TSB
  optical density (bacterial cell growth): 0.99
[1]; 1.25% in urine:TSB
  optical density (bacterial cell growth): 0.98
[1]; 2.5% in urine:TSB
  optical density (bacterial cell growth): 0.97
[1]; 5% in urine:TSB
  optical density (bacterial cell growth): 0.90
[1]; 10% in urine:TSB
  optical density (bacterial cell growth): 0.82
[1]; heated at least about 7 hours at about 97° C. during synthesis, even at elevated concentrations
  effect on the growth of the bacteria: little effect on the growth of the bacteria
[2]; facultative Proteus mirabilis grown with 5% mannitol peroxide
  IL-1a: 48.12 ± 8.93 pg/mL
[2]; facultative Proteus mirabilis grown with 10% mannitol peroxide
  IL-1a: 15.26 ± 12.80 pg/mL
[3]; 5% MP
  Ammonia: 12.46 ppm
[3]; 10% MP
  Ammonia: 14.04 ppm

Reference: US7235263B2, “Processes for controlling microbial organic compound production” (Kimberly-Clark Worldwide, Inc., priority 2001, dated 2007)
